Consider eleven compounds from patent publication US4324801A, “Phenylguanidine acetylsalicylate compounds, process for production thereof, and pharmaceutical composition thereof” (Banyu Pharmaceutical Co. Ltd., priority 1981, dated 1982).

Data set [1] has as its system mice. The conditions noted are these: oral.
A further data set concerns rats. Briefly: Antipyretic activity (peptone-induced rise in rectal temperature). The format is in vivo, rat (male). Conditions: against the control, oral, 200 mg/kg, rat; 5% peponte s.c. (0.5 ml/100 g).
Data set [2] has as its system platelet aggregation in rabbit's platelet-rich plasma (PRP). As to the kind of experiment: cells. Conditions: collagen as aggregation inducer; for IC50: Oryctolagus cuniculus, Platelet, read-out: IC50 (final concentration at 50% inhibition of platelet aggregation). The format is cell-based. The protocol: This was measured by the method of Born et al. Specifically, using collagen as an aggregation inducer, each of the compounds shown in Table 1 was tested to measure the inhibition of platelet aggregation in rabbit's platelet-rich plasma (PRP). Aspirin and mefenamic acid were used as controls.
^(*) Final concentration at 50% inhibition of platelet aggregation.

Another data set relates to guinea pigs. Briefly: Anti-inflammatory activity (ultraviolet irradiation on the back of guinea pigs). Type of data set: in vivo, guinea pig (male). An excerpt:
Male guinea pigs having a body weight of about 350 g were used. The back hair of each guinea pig was removed, and ultraviolet light was irradiated onto the back.

The test system of a further data set is prostaglandin synthesis. As to the kind of experiment: Inhibition of prostaglandin synthesis in washed platelet suspension (malondialdehyde formation after arachidonic acid). The format is cell-based. The conditions noted are these: in vitro; for IC50: read-out: IC50 (final concentration at 50% inhibition of malondialdehyde formation). The protocol: Each of the compounds shown in Table 1 was tested to measure the inhibition of prostaglandin synthesis in a washed platelet suspension by measuring the malondialdehyde formation following the addition of arachidonic acid in vitro.

For data set [3], the system named is mice. As to the kind of experiment: Analgesic activity (acetic acid writhing method). The format is in vivo, mouse (male). The conditions noted are these: oral, intravenous, intraperitoneal, compared against aspirin and mefenamic acid, writhings counted 5 to 25 minutes after acetic acid. The protocol: The analgesic activity was tested by the acetic acid writhing method. Male mice having a body weight of 18 to 20 g were used. Each of the compounds shown in Table 1 was administered orally, intravenously and intraperitoneally, and then 0.2 ml of a 0.7% aqueous solution of acetic acid was administered intraperitoneally 60 minutes (in oral administration), 10 minutes (in intravenous administration), and 15 minutes (in intraperitoneal administration) after the administration of the test compounds.
(In general: In writhing tests, fewer writhes than in controls are read as antinociception.)

A short description of a further data set: in vivo. The conditions noted are these: mouse, po.
Setting [4] is: oral, one hour before UV irradiation, guinea pigs.

In brackets after ≈: the same amount, converted by molar mass. Read-outs that look alike come from different tables or passages of the source.

Excerpt for rats: Male rats having a body weight of 200 to 250 g were used.
^(*) Inhibiting ratio against the control in oral administration at a

On to “3-methylphenylguanidine acetylsalicylate [Compound 3]”, for which the median lethal dose (LD50) (as a rule, the dose at which mortality reaches 50%) in the data set on mice [1] stood at 400 mg/kg. Besides, the Inhibiting ratio in the data set on rats is on record as 28.0%. For the same compound, the “IC50 (final concentration at 50% inhibition of platelet aggregation)” value in data set [2] stood at 7.0 µg/mL. The 50% effective dose (ED50) (as a rule, the dose at which the effect has come halfway, by size or by number of responders) in the data set with guinea pigs (setting [4]) stood at 110 mg/kg. Besides, the “IC50 (final concentration at 50% inhibition of malondialdehyde formation)” value in the data set with prostaglandin synthesis turned out to be 3.7 µg/mL.

On to `Cc1cccc(Nc2ccccc2C(=O)O)c1C` [Mefenamic acid, reference compound], for which the IC50 in data set [2] is more than 20 µg/mL; in the data set on prostaglandin synthesis it was 1.4 µg/mL (≈ 5.8 µM). Further, in the data set with guinea pigs (Cavia porcellus, light or radiation study, 1 h, oral, one hour before UV irradiation, guinea pigs, read-out: ED50), the ED50 was 30 mg/kg.

“4-methylphenylguanidine acetylsalicylate [Compound 4]” displayed an LD50 with mice [1] of 600 mg/kg. In the data set on rats, the Inhibiting ratio was determined as 83.9%. The “IC50 (final concentration at 50% inhibition of platelet aggregation)” value in data set [2] amounted to 4.5 µg/mL. This compound showed a median effective dose (ED50) in the data set on guinea pigs (setting [4]) of 90 mg/kg. Moreover, in the data set on prostaglandin synthesis, the “IC50 (final concentration at 50% inhibition of malondialdehyde formation)” value was 2.4 µg/mL.

“4-ethoxyphenylguanidine acetylsalicylate [Compound 13]” gave a median lethal dose (LD50) in the data set with mice [1] of 600 mg/kg. Also, the Inhibiting ratio in the data set on rats was determined as 62.9%. For the same compound, in data set [2], the “IC50 (final concentration at 50% inhibition of platelet aggregation)” value amounted to 12.2 µg/mL. In the data set on guinea pigs (setting [4]), this compound yielded a median effective dose (ED50) of 85 mg/kg. In the data set on prostaglandin synthesis, the “IC50 (final concentration at 50% inhibition of malondialdehyde formation)” value was found to be 4.0 µg/mL.

Consider “3,4-dimethylphenylguanidine acetylsalicylate [Compound 5]”, for which the analgesic activity entry in the data set on mice [3] was “a marked analgesic activity”. Also, the “IC50 (final concentration at 50% inhibition of platelet aggregation)” value in data set [2] came out at 2.0 µg/mL. Moreover, in the data set with guinea pigs (setting [4]), the ED50 is 85 mg/kg. Further, in the data set with prostaglandin synthesis, the “IC50 (final concentration at 50% inhibition of malondialdehyde formation)” value was determined as 4.8 µg/mL.

“2-methylphenylguanidine acetylsalicylate [Compound 2]” showed an LD50 with mice [1] of 400 mg/kg. In the data set with rats, the Inhibiting ratio was 88.1%. Besides, the “IC50 (final concentration at 50% inhibition of platelet aggregation)” value in data set [2] turned out to be 10.5 µg/mL. In the data set with guinea pigs (setting [4]), this compound displayed a 50% effective dose (ED50) of 65 mg/kg. Also, the “IC50 (final concentration at 50% inhibition of malondialdehyde formation)” value with prostaglandin synthesis was 3.4 µg/mL.

`CC(=O)Oc1ccccc1C(=O)O.N=C(N)Nc1ccccc1` [Compound 1]: in the data set with mice [1], the LD50 is 400 mg/kg. Also, the Inhibiting ratio in the data set on rats worked out at 74.1%. Moreover, in data set [2], the “IC50 (final concentration at 50% inhibition of platelet aggregation)” value was found to be 6.0 µg/mL. The compound further showed a median effective dose (ED50) in the data set with guinea pigs (setting [4]) of 140 mg/kg. In the data set with prostaglandin synthesis, the “IC50 (final concentration at 50% inhibition of malondialdehyde formation)” value worked out at 4.3 µg/mL.

In the case of “4-Carbamoylphenylguanidine acetylsalicylate [Compound 16]”, the LD50 in the data set on mice [1] was 1600 mg/kg. Besides, in the data set with rats, the Inhibiting ratio was 72.0%. Further, in data set [2], the “IC50 (final concentration at 50% inhibition of platelet aggregation)” value stood at 12.5 µg/mL. For the same compound, in the data set with guinea pigs (setting [4]), the ED50 was determined as 200 mg/kg. For the same compound, the “IC50 (final concentration at 50% inhibition of malondialdehyde formation)” value with prostaglandin synthesis is 4.5 µg/mL.

“3-Hydroxy-4-carboethoxyphenylguanidine acetylsalicylate [Compound 17]” came in with a 50% lethal dose (LD50) in the data set with mice [1] of 1100 mg/kg.

For the compound “4-Methoxyphenylguanidine acetylsalicylate [Compound 11]”, in the data set on mice [1], the LD50 is reported as 300 mg/kg. In the data set with rats, the Inhibiting ratio was 25.2%. For the same compound, the “IC50 (final concentration at 50% inhibition of platelet aggregation)” value in data set [2] is 9.6 µg/mL. Also, in the data set on guinea pigs (setting [4]), the ED50 turned out to be 95 mg/kg. Moreover, the “IC50 (final concentration at 50% inhibition of malondialdehyde formation)” value in the data set on prostaglandin synthesis amounted to 3.3 µg/mL.

Consider `CC(=O)Oc1ccccc1C(=O)O` [Aspirin, acetylsalicylic acid, reference compound], for which the Inhibiting ratio in the data set with rats amounted to 81.0%. For the same compound, the figures for the IC50 (in data set [2]; with prostaglandin synthesis) were 12.6 µg/mL (≈ 69.9 µM) and 2.4 µg/mL (≈ 13.3 µM), respectively. The compound further returned a 50% effective dose (ED50) with guinea pigs (Cavia porcellus, light or radiation study, po, 1 h) of 90 mg/kg. The compound further came in with a 50% lethal dose (LD50) in “in vivo” of 950 mg/kg.
